Where a SMILES comes first, the peptide text is derived from it. [ ]: non-standard residue; d: D form. The star is where a group is joined. Tle = CC(C)(C)[C@H](N)C(=O)O; Hexanoyl = CCCCCC(=O)*; Aib = CC(C)(N)C(=O)O; Acm = CC(=O)NC*
test: Stability in human plasma assessed as parent compound remaining after 24 hrs; type: ADME, cell-free; settings: read-out: Stability

| Structure (SMILES) | remaining at 24 h |
| --- | --- |
| CCN1C(=O)CC(SC[C@H](NC(=O)[C@H](CC(C)C)NC(=O)[C@H](CCCCN)NC(=O)[C@H](C)NC(=O)C(C)(C)NC(=O)[C@H](CC(C)C)NC(=O)[C@H](CCCNC(=N)N)NC(=O)[C@H](CCC(=O)O)NC(=O)[C@H](Cc2ccccc2)NC(=O)[C@H](Cc2ccc(O)cc2)NC(=O)CNC(=O)[C@@H]2CCCN2C(=O)[C@@H](NC(=O)[C@H](Cc2cnc[nH]2)NC(=O)[C@@H](NC(=O)[C@H](CC(N)=O)NC(=O)[C@H]2CCCN2C(=O)[C@H](CCCCN)NC(=O)[C@H](CO)NC(=O)[C@H](CCC(N)=O)NC(=O)[C@H](Cc2ccccc2)NC(C)=O)C(C)C)C(C)(C)C)C(N)=O)C1=O (stereo partly specified) | 55.9% |
| CCN1C(=O)CC(SC[C@H](NC(=O)[C@H](CC(C)C)NC(=O)[C@H](CCCCN)NC(=O)[C@H](C)NC(=O)C(C)(C)NC(=O)[C@H](CC(C)C)NC(=O)[C@H](CCCNC(=N)N)NC(=O)[C@H](CCC(=O)O)NC(=O)[C@H](Cc2ccccc2)NC(=O)[C@H](Cc2ccc(O)cc2)NC(=O)CNC(=O)[C@H](Cc2cnc[nH]2)NC(=O)[C@@H](NC(=O)[C@H](Cc2cnc[nH]2)NC(=O)[C@@H](NC(=O)[C@H](CC(N)=O)NC(=O)[C@H]2CCCN2C(=O)[C@H](CCCCN)NC(=O)[C@H](CO)NC(=O)[C@H](CCC(N)=O)NC(=O)[C@H](Cc2ccccc2)NC(C)=O)C(C)C)C(C)C)C(N)=O)C1=O (stereo partly specified) | 18.6% |
| CC(=O)N[C@@H](Cc1ccccc1)C(=O)N[C@@H](CCC(N)=O)C(=O)N[C@@H](CO)C(=O)N[C@@H](CCCCN)C(=O)N1CCC[C@@H]1C(=O)N[C@@H](CC(N)=O)C(=O)N[C@H](C(=O)N[C@@H](Cc1cnc[nH]1)C(=O)N[C@H](C(=O)N[C@@H](CC(=O)O)C(=O)N[C@H](C)C(=O)N[C@@H](Cc1ccc(O)cc1)C(=O)N[C@@H](Cc1ccccc1)C(=O)N[C@@H](CCC(=O)O)C(=O)N[C@@H](CCCNC(=N)N)C(=O)N[C@@H](CC(C)C)C(=O)NC(C)(C)C(=O)N[C@H]1CSSCCNC(=O)[C@H](CC(C)C)NC(=O)[C@H](CCCCN)NC1=O)C(C)(C)C)C(C)C | 16% |
| CC(=O)N[C@@H](Cc1ccccc1)C(=O)N[C@@H](CCC(N)=O)C(=O)N[C@@H](CO)C(=O)N[C@@H](CCCCN)C(=O)N1CCC[C@@H]1C(=O)N[C@@H](CC(N)=O)C(=O)N[C@H](C(=O)N[C@@H](Cc1cnc[nH]1)C(=O)N[C@H](C(=O)N1CCC[C@H]1C(=O)N[C@@H]1CSSCC[C@@H](C(=O)N[C@@H](CCCNC(=N)N)C(=O)N[C@@H](CC(C)C)C(=O)NC(C)(C)C(=O)N[C@@H](C)C(=O)N[C@@H](CCCCN)C(=O)N[C@@H](CC(C)C)C(N)=O)NC(=O)[C@H](Cc2ccccc2)NC(=O)[C@H](Cc2ccc(O)cc2)NC1=O)C(C)C)C(C)C | 40.7% |
| CCN1C(=O)CC(SC[C@H](NC(=O)[C@H](CC(C)C)NC(=O)[C@H](CCCCN)NC(=O)[C@H](C)NC(=O)C(C)(C)NC(=O)[C@H](CC(C)C)NC(=O)[C@H](CCCNC(=N)N)NC(=O)[C@H](CCC(=O)O)NC(=O)[C@H](Cc2ccccc2)NC(=O)[C@H](Cc2ccc(O)cc2)NC(=O)CNC(=O)[C@H](CC(=O)O)NC(=O)[C@@H](NC(=O)[C@H](Cc2cnc[nH]2)NC(=O)[C@@H](NC(=O)[C@H](CC(N)=O)NC(=O)[C@H]2CCCN2C(=O)[C@H](CCCCN)NC(=O)[C@H](CO)NC(=O)[C@H](CCC(N)=O)NC(=O)[C@H](Cc2ccccc2)NC(C)=O)C(C)C)C(C)(C)C)C(N)=O)C1=O (stereo partly specified) | 52% |
| CC(=O)N[C@@H](Cc1ccccc1)C(=O)N[C@@H](CCC(N)=O)C(=O)N[C@@H](CO)C(=O)N[C@@H](CCCCN)C(=O)N1CCC[C@@H]1C(=O)N[C@@H](CC(N)=O)C(=O)N[C@H](C(=O)N[C@@H](Cc1cnc[nH]1)C(=O)N[C@H](C(=O)N1CCC[C@H]1C(=O)NCC(=O)N[C@@H](Cc1ccc(O)cc1)C(=O)N[C@@H](Cc1ccccc1)C(=O)N[C@@H](CCC(=O)O)C(=O)N[C@@H](CCCNC(=N)N)C(=O)N[C@@H](CC(C)C)C(=O)NC(C)(C)C(=O)N[C@@H](C)C(=O)N[C@@H](CCCCN)C(=O)N[C@@H](CC(C)C)C(N)=O)C(C)C)C(C)C | 76.3% |
| CCN1C(=O)CC(SC[C@H](NC(=O)[C@H](CC(C)C)NC(=O)[C@H](CCCCN)NC(=O)[C@H](C)NC(=O)C(C)(C)NC(=O)[C@H](CC(C)C)NC(=O)[C@H](CCCNC(=N)N)NC(=O)[C@H](CCC(=O)O)NC(=O)[C@H](Cc2ccccc2)NC(=O)[C@H](Cc2ccc(O)cc2)NC(=O)CNC(=O)[C@H](CC(=O)O)N(C)C(=O)[C@@H](NC(=O)[C@H](Cc2cnc[nH]2)NC(=O)[C@@H](NC(=O)[C@H](CC(N)=O)NC(=O)[C@H]2CCCN2C(=O)[C@H](CCCCN)NC(=O)[C@H](CO)NC(=O)[C@H](CCC(N)=O)NC(=O)[C@H](Cc2ccccc2)NC(C)=O)C(C)C)C(C)C)C(N)=O)C1=O (stereo partly specified) | 46.5% |
| CCN1C(=O)CC(SC[C@H](NC(=O)[C@H](CC(C)C)NC(=O)[C@H](CCCCN)NC(=O)[C@H](C)NC(=O)C(C)(C)NC(=O)[C@H](CC(C)C)NC(=O)[C@H](CCCNC(=N)N)NC(=O)[C@H](CCC(=O)O)NC(=O)[C@H](Cc2ccccc2)NC(=O)[C@H](Cc2ccc(O)cc2)NC(=O)CNC(=O)[C@@H]2CCCN2C(=O)[C@@H](NC(=O)[C@H](Cc2cnc[nH]2)NC(=O)[C@@H](NC(=O)[C@H](CC(N)=O)NC(=O)[C@H]2CCCN2C(=O)[C@H](CCCCN)NC(=O)[C@H](CO)NC(=O)[C@H](CCC(N)=O)NC(=O)[C@H](Cc2ccccc2)NC(C)=O)C(C)C)C(C)C)C(N)=O)C1=O (stereo partly specified) | 58% |
| CCCCCC(=O)N[C@@H](Cc1ccccc1)C(=O)N[C@@H](CCC(N)=O)C(=O)N[C@@H](CO)C(=O)N[C@@H](CCCCN)C(=O)N1CCC[C@@H]1C(=O)N[C@@H](CSCNC(C)=O)C(=O)N[C@H](C(=O)N[C@@H](Cc1cnc[nH]1)C(=O)N[C@H](C(=O)N[C@@H](CC(=O)O)C(=O)N[C@H](C)C(=O)N[C@@H](Cc1ccc(O)cc1)C(=O)N[C@@H](Cc1ccccc1)C(=O)N[C@@H](CCC(=O)O)C(=O)N[C@@H](CCCNC(=N)N)C(=O)N[C@@H](CC(C)C)C(=O)NC(C)(C)C(=O)N[C@@H](C)C(=O)N[C@@H](CCCCN)C(=O)N[C@@H](CC(C)C)C(N)=O)C(C)(C)C)C(C)C (Hexanoyl-FQSK[dP]C(Acm)VH[Tle]D[dA]YFERL[Aib]AKL-NH2) | 90.1 to 93% |
| CC(=O)N[C@@H](Cc1ccccc1)C(=O)N[C@@H](CCC(N)=O)C(=O)N[C@@H](CO)C(=O)N[C@@H](CCCCN)C(=O)N(CCCN)CC(=O)N[C@@H](CC(N)=O)C(=O)N[C@H](C(=O)N[C@@H](Cc1cnc[nH]1)C(=O)N[C@H](C(=O)N[C@@H](CC(=O)O)C(=O)NCC(=O)N[C@@H](Cc1ccc(O)cc1)C(=O)N[C@@H](Cc1ccccc1)C(=O)N[C@@H](CCC(=O)O)C(=O)N[C@@H](CCCNC(=N)N)C(=O)N[C@@H](CC(C)C)C(=O)NC(C)(C)C(=O)N[C@@H](C)C(=O)N[C@@H](CCCCN)C(=O)N[C@@H](CC(C)C)C(N)=O)C(C)C)C(C)C | 46.7% |
| CCN1C(=O)CC(SC[C@H](NC(=O)[C@H](CC(C)C)NC(=O)[C@H](CCCCN)NC(=O)[C@H](C)NC(=O)C(C)(C)NC(=O)[C@H](CC(C)C)NC(=O)[C@H](CCCNC(=N)N)NC(=O)[C@H](CCC(=O)O)NC(=O)[C@H](Cc2ccccc2)NC(=O)[C@H](Cc2ccc(O)cc2)NC(=O)CNC(=O)[C@@H](NC(=O)[C@@H](NC(=O)[C@H](Cc2cnc[nH]2)NC(=O)[C@@H](NC(=O)[C@H](CC(N)=O)NC(=O)[C@H]2CCCN2C(=O)[C@H](CCCCN)NC(=O)[C@H](CO)NC(=O)[C@H](CCC(N)=O)NC(=O)[C@H](Cc2ccccc2)NC(C)=O)C(C)C)C(C)(C)C)[C@@H](C)O)C(N)=O)C1=O (stereo partly specified) | 52.6% |
| CC(C)C[C@H](NC(=O)[C@H](CCCCN)NC(=O)[C@H](C)NC(=O)C(C)(C)NC(=O)[C@H](CC(C)C)NC(=O)[C@H](CCCNC(=N)N)NC(=O)[C@H](CCC(=O)O)NC(=O)[C@H](Cc1ccccc1)NC(=O)[C@H](Cc1ccc(O)cc1)NC(=O)[C@@H](C)NC(=O)[C@H](CC(=O)O)NC(=O)[C@@H](NC(=O)[C@H](Cc1cnc[nH]1)NC(=O)[C@@H](NC(=O)[C@H](CC(N)=O)NC(=O)[C@H]1CCCN1C(=O)[C@H](CCCCN)NC(=O)[C@H](CO)NC(=O)[C@H](CCC(N)=O)NC(=O)[C@H](Cc1ccccc1)NS(=O)(=O)c1ccc2ccccc2c1)C(C)C)C(C)(C)C)C(N)=O | 105% |
| CCN1C(=O)CC(SC[C@H](NC(=O)[C@H](CC(C)C)NC(=O)[C@H](CCCCN)NC(=O)[C@H](C)NC(=O)C(C)(C)NC(=O)[C@H](CC(C)C)NC(=O)[C@H](CCCNC(=N)N)NC(=O)[C@H](CCC(=O)O)NC(=O)[C@H](Cc2ccccc2)NC(=O)[C@H](Cc2ccc(O)cc2)NC(=O)CNC(=O)[C@@H](CC(=O)O)NC(=O)[C@@H](NC(=O)[C@H](Cc2cnc[nH]2)NC(=O)[C@@H](NC(=O)[C@H](CS)NC(=O)[C@H]2CCCN2C(=O)[C@H](CCCCN)NC(=O)[C@H](CO)NC(=O)[C@H](CCC(N)=O)NC(=O)[C@H](Cc2ccccc2)NC(C)=O)C(C)C)C(C)C)C(N)=O)C1=O (stereo partly specified) | 70.9% |
| CC(=O)N[C@@H](Cc1ccccc1)C(=O)N[C@@H](CCC(N)=O)C(=O)N[C@@H](CO)C(=O)N[C@@H](CCCCN)C(=O)N1CCC[C@@H]1C(=O)N[C@@H](CC(N)=O)C(=O)N[C@H](C(=O)N[C@@H](Cc1cnc[nH]1)C(=O)N[C@H](C(=O)N[C@@H](CC(=O)O)C(=O)N[C@@H]1CSSC[C@@H](C(=O)N[C@@H](CCCNC(=N)N)C(=O)N[C@@H](CC(C)C)C(=O)N[C@@H](C)C(=O)N[C@@H](C)C(=O)N[C@@H](CCCCN)C(=O)N[C@@H](CC(C)C)C(N)=O)NC(=O)[C@H](Cc2ccccc2)NC(=O)[C@H](Cc2ccc(O)cc2)NC1=O)C(C)(C)C)C(C)C | 49.3% |
| CC(C)C[C@@H]1NC(=O)[C@H](CCCCN)NC(=O)[C@H](C)NC(=O)C(C)(C)NC(=O)[C@H](CC(C)C)NC(=O)[C@H](CCCNC(=N)N)NC(=O)[C@H](CCC(=O)O)NC(=O)[C@H](Cc2ccccc2)NC(=O)[C@H](Cc2ccc(O)cc2)NC(=O)CNC(=O)[C@H](CC(=O)O)NC(=O)[C@H](C(C)C)NC(=O)[C@H](Cc2cnc[nH]2)NC(=O)[C@H](C(C)C)NC(=O)[C@H](CC(N)=O)NC(=O)[C@H]2CCCN2C(=O)[C@H](CCCCN)NC(=O)[C@H](CO)NC(=O)[C@H](CCC(N)=O)NC(=O)[C@H](Cc2ccccc2)NC(=O)CCOCCOCCOCCOCCNC1=O | 55.9% |
| CC(=O)N[C@@H](Cc1ccccc1)C(=O)N[C@@H](CCC(N)=O)C(=O)N[C@@H](CO)C(=O)N[C@@H](CCCCN)C(=O)N(CC(=O)N[C@@H](CC(N)=O)C(=O)N[C@H](C(=O)N[C@@H](Cc1cnc[nH]1)C(=O)N[C@H](C(=O)N[C@@H](CC(=O)O)C(=O)NCC(=O)N[C@@H](Cc1ccc(O)cc1)C(=O)N[C@@H](Cc1ccccc1)C(=O)N[C@@H](CCC(=O)O)C(=O)N[C@@H](CCCNC(=N)N)C(=O)N[C@@H](CC(C)C)C(=O)NC(C)(C)C(=O)N[C@@H](C)C(=O)N[C@@H](CCCCN)C(=O)N[C@@H](CC(C)C)C(N)=O)C(C)C)C(C)C)C1CCCCC1 | 17.4% |

Source: ChEMBL document CHEMBL4420062, “Tfpi inhibitors and methods of use” (2013)
